For test [1], the target named is bacterial PDF (peptide deformylase), enzyme from E. coli (Escherichia coli, UniProt P0A6K3). As to the kind of experiment: Bacterial peptide deformylase (PDF) assay, enzyme from E. coli. Format: biochemical. The protocol:
(§1) The IC50 value of a compound of the invention as a bacterial PDF inhibitor was determined using the following assay.
(§2) Assay buffer (pH 7.2): 0.1 M MOPS pH was adjusted to 7.2 with NaOH, containing 0.25 M NaCl, 100 microgram/mL catalase and 1 mg/mL BSA.
(§3) Enzyme mix: 670 ng/mL of enzyme (to finally have 50 ng of enzyme per well).
(§4) Substrate: 10 mM f-Met-Ala was made up from 200 mM f-Met-Ala in methanol with assay buffer.
(§5) TNBS solution: Freshly dilute 1 M TNBS stock solution to 1:10 with water.
(§6) Buffer C: 0.5 M borate buffer adjusted to pH 9.5 with NaOH.
(§7) Buffer D: 0.2 ml of freshly prepared 0.5 M Na2SO3 was mixed with 9.8 mL of 0.5M NaH2PO4.
(§8) Inhibitor solution: 2 mM Sodium 4-(hydroxymercurio) benzoate in assay buffer.
(§9) The assay was performed in a 96 Microtiter plate containing test compound. To each well containing test compound mix was added 75 microliter of enzyme mix from E. coli followed, by the addition of 25 microliter of substrate mix. The resulting mix was incubated for 30 minutes at room temperature with shaking. TNBS solution (50 microliter/well) was added and the resulting mixture was incubated for 15 minutes under shaking. Buffer C was then added (20 microliter/well). After incubating at room temperature for 15 minutes under shaking, buffer D was added (50 microliter/well). The optical […] was then measured at 420 nm, thereby determining the IC50 value.

Test [2] has as its target T1, bacterial PDF (peptide deformylase), enzyme from S. aureus (Staphylococcus aureus, UniProt P68826).
T1 sequence (P68826 1-183): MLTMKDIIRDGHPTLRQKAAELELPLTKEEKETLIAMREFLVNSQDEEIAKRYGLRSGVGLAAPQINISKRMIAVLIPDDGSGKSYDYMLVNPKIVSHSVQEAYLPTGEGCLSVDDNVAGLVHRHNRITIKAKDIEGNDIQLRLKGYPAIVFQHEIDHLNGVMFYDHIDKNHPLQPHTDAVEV
Nature of the test: Bacterial peptide deformylase (PDF) assay, enzyme from S. aureus. Format: biochemical. On the procedure: as §1, §2, §3, §4, §5, §6, §7, §8, §9
The assay was repeated using enzyme mix from S. aureus.

Setting [3] is: PDF enzyme from S. aureus, substrate f-Met-Ala, TNBS readout at 420 nm, read-out: IC50 (enzyme from S. aureus).

Where two headings read alike, the source gives them in different places.

bacterial PDF (peptide deformylase), enzyme from E. coli, sequence (P0A6K3 whole entry): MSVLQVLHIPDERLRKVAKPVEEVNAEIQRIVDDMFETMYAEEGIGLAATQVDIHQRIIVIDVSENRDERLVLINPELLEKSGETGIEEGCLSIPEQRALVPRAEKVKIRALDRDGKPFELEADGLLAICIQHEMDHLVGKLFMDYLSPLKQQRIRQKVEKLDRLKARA

Take `CCN1CC(CC(=O)NO)S(=O)(=O)c2ccc(C(=O)NCc3ccc(OC)cc3)cc21` (stereo not drawn) [Example 23, 4-Ethyl-2-hydroxycarbamoylmethyl-1,1-dioxo-1,2,3,4-tetrahydro-1λ^6-benzo[1,4]thiazine-6-carboxylic acid 4-methoxy-benzylamide]: the IC50 was found to be 4.9 µM in test [1] and 13.1 µM in test [2] (setting [3]).
On to `CCN1CC(CC(=O)NO)S(=O)(=O)c2ccc(C(=O)NCc3cccc(C(F)(F)F)c3)cc21` (stereo not drawn) [Example 24, 4-Ethyl-2-hydroxycarbamoylmethyl-1,1-dioxo-1,2,3,4-tetrahydro-1λ^6-benzo[1,4]thiazine-6-carboxylic acid 3-trifluoromethyl-benzylamide], for which the IC50 in test [1] turned out to be 2 µM; in test [2] (setting [3]), 8.3 µM.
Regarding `CCN1CC(CC(=O)NO)S(=O)(=O)c2ccc(C(=O)NCc3ccc(OC(F)(F)F)cc3)cc21` (stereo not drawn) [Example 26, 4-Ethyl-2-hydroxycarbamoylmethyl-1,1-dioxo-1,2,3,4-tetrahydro-1λ^6-benzo[1,4]thiazine-6-carboxylic acid 4-trifluoromethoxybenzylamide], the half-inhibitory concentration (IC50) in test [1] stood at 1.1 µM; in test [2] (setting [3]), 5 µM.
Consider `CCN1CC(CC(=O)NO)S(=O)(=O)c2ccc(C(=O)NCc3ccc(N(C)C)cc3)cc21` (stereo not drawn) [Example 27, 4-Ethyl-2-hydroxycarbamoylmethyl-1,1-dioxo-1,2,3,4-tetrahydro-1λ^6-benzo[1,4]thiazine-6-carboxylic acid 4-dimethylaminobenzylamide], for which the IC50 in test [1] stood at 9.3 µM; in test [2] (setting [3]) it was 18.2 µM.
For `CCN1CC(CC(=O)NO)S(=O)(=O)c2ccc(C(=O)NCc3ccncc3)cc21` (stereo not drawn) [Example 28, 4-Ethyl-2-hydroxycarbamoylmethyl-1,1-dioxo-1,2,3,4-tetrahydro-1λ^6-benzo[1,4]thiazine-6-carboxylic acid (pyridin-4-ylmethyl)-amide], the IC50 is above 200 µM in test [1] and 70.5 µM in test [2] (setting [3]).
Turning to `CCN1CC(CC(=O)NO)S(=O)(=O)c2ccc(C(=O)NCc3cccs3)cc21` (stereo not drawn) [Example 29, 4-Ethyl-2-hydroxycarbamoylmethyl-1,1-dioxo-1,2,3,4-tetrahydro-1λ^6-benzo[1,4]thiazine-6-carboxylic acid (thiophen-2-ylmethyl)-amide], the IC50 was found to be 9.5 µM in test [1] and 3.4 µM in test [2] (setting [3]).
As to `CCN1CC(CC(=O)NO)S(=O)(=O)c2ccc(C(=O)Nc3cc[nH]n3)cc21` (stereo not drawn) [Example 30, 4-Ethyl-2-hydroxycarbamoylmethyl-1,1-dioxo-1,2,3,4-tetrahydro-1λ^6-benzo[1,4]thiazine-6-carboxylic acid (1H-pyrazol-3-yl)-amide], the IC50 in test [1] stood at 11.5 µM; in test [2] (setting [3]) it was 30.8 µM.
Turning to `CCN1CC(CC(=O)NO)S(=O)(=O)c2ccc(C(=O)Nc3nccs3)cc21` (stereo not drawn) [Example 31, 4-Ethyl-2-hydroxycarbamoylmethyl-1,1-dioxo-1,2,3,4-tetrahydro-1λ^6-benzo[1,4]thiazine-6-carboxylic acid thiazol-2-ylamide], the IC50 is 12.3 µM in test [1] and 20.8 µM in test [2] (setting [3]).
`CCN1CC(CC(=O)NO)S(=O)(=O)c2ccc(C(=O)N3CCN(C)CC3)cc21` (stereo not drawn) [Example 32, 2-[4-Ethyl-6-(4-methyl-piperazine-1-carbonyl)-1,1-dioxo-1,2,3,4-tetrahydro-1λ^6-benzo[1,4]thiazin-2-yl]-N-hydroxy-acetamide]: the IC50 in test [1] is above 200 µM; in test [2] (setting [3]), 128 µM.
Take `CCN1CC(CC(=O)NO)S(=O)(=O)c2ccc(C(=O)Nc3cc(-c4cccs4)n[nH]3)cc21` (stereo not drawn) [Example 33, 4-Ethyl-2-hydroxycarbamoylmethyl-1,1-dioxo-1,2,3,4-tetrahydro-1λ^6-benzo[1,4]thiazine-6-carboxylic acid (5-thiophen-2-yl-2H-pyrazol-3-yl)-amide]: the IC50 in test [1] was found to be 0.9 µM; in test [2] (setting [3]), 3 µM.
Regarding `CCN1CC(CC(=O)NO)S(=O)(=O)c2ccc(C(=O)NC3CC4CCC(C3)N4C)cc21` (stereo not drawn) [Example 34], the IC50 amounted to 13.8 µM in test [1] (PDF enzyme from E. coli, substrate f-Met-Ala, TNBS readout at 420 nm, read-out: IC50 (enzyme from E. coli)) and 6 µM in test [2].
Regarding `O=C(CC1CN(CC2CC2)c2ccccc2S1(=O)=O)NO` (stereo not drawn) [Example 35], the IC50 in test [1] worked out at 2.1 µM; in test [2] (setting [3]), 4.8 µM.
`O=C(CC1CN(CC2CCC2)c2ccccc2S1(=O)=O)NO` (stereo not drawn) [Example 36, 2-(4-Cyclobutylmethyl-1,1-dioxo-1,2,3,4-tetrahydro-1λ^6-benzo[1,4]thiazin-2-yl)-N-hydroxy-acetamide]: the IC50 in test [1] is 3.3 µM; in test [2] (setting [3]), 3.8 µM.
As for `O=C(CC1CN(CC2CCCC2)c2ccccc2S1(=O)=O)NO` (stereo not drawn) [Example 37, 2-(4-Cyclopentylmethyl-1,1-dioxo-1,2,3,4-tetrahydro-1λ^6-benzo[1,4]thiazin-2-yl)-N-hydroxy-acetamide], the IC50 was found to be 11.1 µM in test [1] and 13.9 µM in test [2] (setting [3]).
Taken in the same sequence, the figures for `O=C(CC1CN(CC2CCCCC2)c2ccccc2S1(=O)=O)NO` (stereo not drawn) [Example 38, 2-(4-Cyclohexylmethyl-1,1-dioxo-1,2,3,4-tetrahydro-1λ^6-benzo[1,4]thiazin-2-yl)-N-hydroxy-acetamide] were 33.2 µM and 18.1 µM.

These data come from patent US20090093468A1, “Peptide Deformylase Inhibitors” (priority 2004, published 2009).
